Measured values as given in ChEMBL document CHEMBL3580540, “N1-linked melatonin dimers as bivalent ligands targeting dimeric melatonin receptors” (Medchemcomm, 2014).

Legend:
Type in all cases: cell-based
[1] = Displacement of 2-[125I]-iodomelatonin from human MT1 receptor expressed in CHO cells by Gamma counting
[2] = Displacement of 2-[125I]-iodomelatonin from human MT2 receptor expressed in CHO cells by Gamma counting
HEK-293T [3] = assay: Binding affinity to Rluc-tagged MT1/YFP-tagged MT1 (unknown origin) transfected in HEK293T cells assessed as bioluminescence resonance energy transfer ratio at 10 uM after 10 mins by lumino/fluorometer (reference value: 0.092 +/- 0.007); details: Homo sapiens
HEK-293T [4] = assay: Binding affinity to Rluc-tagged MT1/YFP-tagged MT2 (unknown origin) transfected in HEK293T cells assessed as bioluminescence resonance energy transfer ratio at 10 uM after 10 mins by lumino/fluorometer (reference value: 0.254 +/- 0.035); details: Homo sapiens
HEK-293T [5] = assay: Binding affinity to Rluc-tagged MT2/YFP-tagged MT2 (unknown origin) transfected in HEK293T cells assessed as bioluminescence resonance energy transfer ratio at 10 uM after 10 mins by lumino/fluorometer (reference value: 1.468 +/- 0.560); details: Homo sapiens
HEK-293T [6] = assay: Binding affinity to Rluc-tagged MT2/YFP-tagged MT1 (unknown origin) transfected in HEK293T cells assessed as bioluminescence resonance energy transfer ratio at 10 uM after 10 mins by lumino/fluorometer (reference value: 2.300 +/- 0.777); details: Homo sapiens

Compound | pKi [1] | pKi [2] | Ratio (HEK-293T [3]) | Ratio (HEK-293T [4]) | Ratio (HEK-293T [5]) | Ratio (HEK-293T [6])
COc1ccc2c(c1)c(CCNC(C)=O)cn2CC(=O)NCCCCCCCCCCCCNC(=O)Cn1cc(CCNC(C)=O)c2cc(OC)ccc21 | 6.47 | 7.02 |  |  |  | 
COc1ccc2c(c1)c(CCNC(C)=O)cn2CCCCC(=O)NCCCCCCNC(=O)CCCCn1cc(CCNC(C)=O)c2cc(OC)ccc21 | 5.64 | 5.9 |  |  |  | 
COc1ccc2c(c1)c(CCNC(C)=O)cn2CC(=O)NCCCCCCCCCCNC(=O)Cn1cc(CCNC(C)=O)c2cc(OC)ccc21 | 6.37 | 7.34 |  |  |  | 
COc1ccc2c(c1)c(CCNC(C)=O)cn2CCCCC(=O)NCCCCCCCCNC(=O)CCCCn1cc(CCNC(C)=O)c2cc(OC)ccc21 | 6.17 | 6.74 |  |  |  | 
COc1ccc2c(c1)c(CCNC(C)=O)cn2CCCCC(=O)NCCCCCCCCCNC(=O)CCCCn1cc(CCNC(C)=O)c2cc(OC)ccc21 | 6.23 | 6.79 |  |  |  | 
COc1ccc2c(c1)c(CCNC(C)=O)cn2CCCCC(=O)NCCCCCCCCCCNC(=O)CCCCn1cc(CCNC(C)=O)c2cc(OC)ccc21 | 6.33 | 6.62 | 0.098 | 0.223 | 1.39 | 9.28
COc1ccc2c(c1)c(CCNC(C)=O)cn2CC(=O)NCCCCCCCCCNC(=O)Cn1cc(CCNC(C)=O)c2cc(OC)ccc21 | 4.83 | 4.93 |  |  |  | 
CCCCCCNC(=O)CCCCn1cc(CCNC(C)=O)c2cc(OC)ccc21 | 5.79 | 6.41 |  |  |  | 
COc1ccc2c(c1)c(CCNC(C)=O)cn2CC(=O)NCCCCCCCCCCCNC(=O)Cn1cc(CCNC(C)=O)c2cc(OC)ccc21 | 5.12 | 6.53 |  |  |  | 
COc1ccc2c(c1)c(CCNC(C)=O)cn2CCCCC(=O)NCCCCCCCNC(=O)CCCCn1cc(CCNC(C)=O)c2cc(OC)ccc21 | 6.24 | 5.93 |  |  |  | 
COc1ccc2c(c1)c(CCNC(C)=O)cn2CCCCC(=O)NCCCCCCCCCCCCNC(=O)CCCCn1cc(CCNC(C)=O)c2cc(OC)ccc21 | 6.08 | 6.67 | 0.062 | 0.2 | 1.15 | 6.81
COc1ccc2c(c1)c(CCNC(C)=O)cn2CCCCC(=O)NCCCCCCCCCCCNC(=O)CCCCn1cc(CCNC(C)=O)c2cc(OC)ccc21 | 6.11 | 6.54 | 0.078 | 0.217 | 0.901 | 10.1
